Experimental data taken from publication PMC9229294, “Pyridazinones and Structurally Related Derivatives with Anti-Inflammatory Activity” (Molecules, 2022).

How the values were obtained:
[1] = Cytotoxicity, CellTiter-Glo, THP1-Blue cells; format: cell-based, human; details: human, THP1-Blue cells; N.T. = no cytotoxicity at 50 µM; read-out: Cytotoxicity IC50 in THP1-Blue Cells
Experimental: (§1) Our studies included 175 compounds that were previously synthesized and characterized at NEUROFARBA, Pharmaceutical and Nutraceutical Section, University of Florence, Italy. We previously evaluated the FPR1/FPR2 agonist activity of these compounds by evaluating their ability to induce Ca^2+ mobilization in FPR-transfected HL60 cells and human neutrophils. […] All test compounds were dissolved in DMSO at stock concentrations of 10 mM and stored at −20 °C. For primary screening assays (analysis of NF-κB activation, IL-6 production, and cytotoxicity), the following final concentrations of the compounds were used: 3.125, 6.25, 12.5, 25, and 50 µM; the final concentration of DMSO was 1% in all samples.
(§2) The cytotoxicity was analyzed with a CellTiter-Glo Luminescent Cell Viability Assay Kit from Promega (Madison, WI, USA), according to the manufacturer’s protocol. The luminescent ATP assays are based on a luciferase enzymatic reaction which uses ATP from viable cells to generate photons. For this assay, the cells were incubated with the compounds under investigation for 24 h. After treatment, the cells were equilibrated to room temperature for 30 min, luciferase + luciferin substrate was added, and the samples were analyzed with a Fluoroscan Ascent FL (Thermo Fisher Scientific, Waltham, MA, USA). The IC50 values were calculated by plotting the percentage inhibition against the logarithm of the inhibitor concentration (at least five points).

[2] = tested on: LPS-induced NF-κB activity in THP1-Blue cells; experiment: Inhibition of LPS-induced NF-κB transcriptional activity, alkaline phosphatase reporter, THP1-Blue cells; format: cell-based, human; details: for IC50: LPS-induced NF-κB activity, human THP1-Blue cells, N.A. = no activity at 50 µM; for Observed class for inhibition of NF-κB activity: experimentally observed, Active or N.A.; for Inhibition of LPS-induced NF-κB activity (in words): THP1-Blue cells
Experimental: as §1
The activation of NF-κB was measured using an alkaline phosphatase reporter assay in human monocytic THP1-Blue cells stably transfected with a secreted embryonic alkaline phosphatase gene that is under the control of a promoter inducible by the NF-κB. The THP1-Blue cells (2 × 10^5 cells/well) were pretreated with the test compound or DMSO for 30 min, followed by an addition of 250 ng/mL LPS for 24 h. Alkaline phosphatase activity was determined in cell supernatants using a QUANTI-Blue mix (InvivoGen) and measured at 655 nm and compared with positive control samples (LPS).

FPR2 = biological target: T1, FPR2 (Homo sapiens, UniProt P25090); details: FPR2-transfected HL-60 cells; agonist activity from Table 1; read-out: Ca2+ Mobilization FPR2 EC50 in HL-60 Cells; cited from earlier work
T1 construct: expressed in transfected cells; host or cells: HL-60 cells (FPR2-HL60)
T1 sequence (P25090 1-351): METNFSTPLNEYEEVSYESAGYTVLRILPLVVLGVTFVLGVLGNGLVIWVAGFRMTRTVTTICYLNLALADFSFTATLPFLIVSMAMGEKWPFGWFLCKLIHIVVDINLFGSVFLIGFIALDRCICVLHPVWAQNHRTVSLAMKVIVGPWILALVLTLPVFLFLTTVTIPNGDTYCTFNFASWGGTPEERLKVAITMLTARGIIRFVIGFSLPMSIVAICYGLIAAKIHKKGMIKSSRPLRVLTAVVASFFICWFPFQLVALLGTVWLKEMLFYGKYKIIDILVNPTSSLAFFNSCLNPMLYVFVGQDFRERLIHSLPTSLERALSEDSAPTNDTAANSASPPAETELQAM

FPR1 = biological target: T2, FPR1 (Homo sapiens, UniProt P21462); details: FPR1-transfected HL-60 cells; agonist activity from Table 1; read-out: Ca2+ Mobilization FPR1 EC50 in HL-60 Cells; cited from earlier work
T2 construct: expressed in transfected cells; host or cells: HL-60 cells (FPR1-HL60)
T2 sequence (P21462 1-350): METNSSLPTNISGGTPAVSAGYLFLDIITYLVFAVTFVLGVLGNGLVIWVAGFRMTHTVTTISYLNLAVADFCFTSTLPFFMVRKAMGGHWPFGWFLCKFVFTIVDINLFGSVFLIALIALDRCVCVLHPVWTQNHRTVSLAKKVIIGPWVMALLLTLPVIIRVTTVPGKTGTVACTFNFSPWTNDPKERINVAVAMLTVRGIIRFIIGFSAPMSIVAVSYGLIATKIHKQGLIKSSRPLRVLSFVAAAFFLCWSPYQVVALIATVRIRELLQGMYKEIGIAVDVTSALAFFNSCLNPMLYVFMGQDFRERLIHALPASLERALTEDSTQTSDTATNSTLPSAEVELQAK

[3] = tested on: LPS-induced IL-6 production in MonoMac-6 cells; experiment: Inhibition of LPS-induced IL-6 production in MonoMac-6 cells (ELISA); format: cell-based, human
Experimental: as §1
A human IL-6 ELISA kit (BD Biosciences, San Jose, CA, USA) was used to measure IL-6 production. […] The cells were pretreated with the test compound or DMSO for 30 min, followed by addition of 250 ng/mL LPS for 24 h. The IC50 values for IL-6 production were calculated by plotting the percentage inhibition against the logarithm of the inhibitor concentration (at least five points).

[4] = Cytotoxicity, CellTiter-Glo, MonoMac-6 cells; format: cell-based, human; details: human, MonoMac-6 cells
Experimental: as §1, §2

Row | Compound | IC50 ([2]; Homo sapiens) | IC50 at 24 h [1] | EC50 (FPR2) | EC50 (FPR1) | Observed class for inhibition of NF-κB activity [2] | Inhibition of LPS-induced NF-κB activity (in words) ([2]; 250 ng/mL LPS, 24 h) | IC50 ([3]; Homo sapiens, MONO-MAC-6, read-out: Inhibition of IL-6 Production IC50 in MonoMac-6 Cells) | IC50 at 24 h [4] | IC50 [2] | Inhibition of LPS-induced NF-κB activity (in words) ([2]; peptide at 5 nM) | Inhibition of LPS-induced IL-6 production (in words) ([3]; MonoMac-6 cells, 250 ng/mL LPS, 24 h)
1 | CCC(C(=O)Nc1ccc(Br)cc1)n1nc(C)cc(Cc2cccc(OC)c2)c1=O (stereo not shown) [Compound 88] | 39.4 ± 4.2 µM | > 50 µM | 2.2 µM | 1.3 µM |  |  |  |  |  |  | 
2 | CCC(C)(C(=O)Nc1ccc(Br)cc1)n1nc(C)cc(Cc2cccc(OC)c2)c1=O (stereo not shown) [Compound 90] | 39.2 ± 6.7 µM | > 50 µM | 2.1 µM | 1.5 µM |  |  |  |  |  |  | 
3 | CCCCOc1ccc(-c2c(OC)cnn(Cc3ccc(OC)cc3)c2=O)cc1 [Compound 109] | 31.3 ± 1.6 µM | > 50 µM | > 50 µM | > 50 µM | Active |  |  |  |  |  | 
4 | COc1ccc2c(c1)c(CC(=O)Nc1ccc(Br)cc1)c(C)n2C(=O)c1ccc(Cl)cc1 [Compound 133] |  |  |  |  |  | inactive |  |  |  |  | 
5 | COc1cccc(Cn2cc(CC(=O)Nc3ccc(Br)cc3)c3ccccc32)c1 [Compound 134] |  |  |  |  |  | inactive |  |  |  |  | 
6 | COc1cccc(-c2cc(C#N)c(=O)n(CC(=O)Nc3ccc(Br)cc3)c2C)c1 [Compound 141] | 15.3 ± 4.9 µM | > 50 µM |  |  | Active |  | 24.5 ± 0.8 µM | > 50 µM |  |  | 
7 | COc1ccc(Nc2c(C#N)cnn2CC(=O)Nc2ccc(Br)cc2)cc1 [Compound 156] | 25 ± 0.4 µM | > 50 µM | > 50 µM | > 50 µM | Active |  |  |  |  |  | 
8 | COc1cccc(-c2nn(CC(=O)Nc3ccc(Br)cc3)c(C)c2C#N)c1 [Compound 160] |  | > 50 µM | 4.8 µM | 8.2 µM | Active |  |  |  | 28.8 ± 2 µM |  | 
9 | COc1cccc(Nc2cn(-c3ccccc3)n(CC(=O)Nc3ccc(Br)cc3)c2=O)c1 [Compound 164] | 35.7 ± 1.9 µM | > 50 µM | > 50 µM | 29 µM | Active |  |  |  |  |  | 
10 | N-formyl-Met-Leu-Phe [fMLF, reference compound] |  |  |  |  |  |  |  |  |  | did not inhibit | did not affect

Continued, in another order:

Row | IC50 ([2]; Homo sapiens) | Compound | IC50 at 24 h [1] | EC50 (FPR2) | EC50 (FPR1) | Observed class for inhibition of NF-κB activity [2] | Inhibition of LPS-induced NF-κB activity (in words) ([2]; 250 ng/mL LPS, 24 h) | IC50 ([3]; Homo sapiens, MONO-MAC-6, read-out: Inhibition of IL-6 Production IC50 in MonoMac-6 Cells) | IC50 at 24 h [4] | IC50 [2] | Inhibition of LPS-induced NF-κB activity (in words) ([2]; peptide at 5 nM) | Inhibition of LPS-induced IL-6 production (in words) ([3]; MonoMac-6 cells, 250 ng/mL LPS, 24 h)
11 | 37 ± 0.4 µM | COc1cccc(Cc2cc(C)nn(CCNC(=O)Nc3ccc(Br)cc3)c2=O)c1 [Compound 113] | > 50 µM |  |  | Active |  |  |  |  |  | 
12 | 46.3 ± 2.4 µM | CC1CC(c2ccccc2)=NN(CC(=O)Nc2ccc(F)cc2)C1=O (stereo not shown) [Compound 122] | > 50 µM | > 50 µM | > 50 µM |  |  |  |  |  |  | 
13 | 42.7 ± 0.3 µM | CC1CC(c2ccccc2)=NN(CC(=O)Nc2ccc(Br)cc2)C1=O (stereo not shown) [Compound 124] | > 50 µM | 10.7 µM | 19.5 µM |  |  |  |  |  |  | 
14 | 43 ± 3.9 µM | Cc1ccc(-n2ccc(=O)n(CC(=O)Nc3ccc(Br)cc3)c2=O)cc1 [Compound 149] | > 50 µM | 14.9 µM | 13.6 µM | Active |  |  |  |  |  | 
15 | 43.4 ± 4.2 µM | O=C(Cn1c(-c2ccc(Cl)cc2)csc1=O)Nc1ccc(Br)cc1 [Compound 168] | > 50 µM | 2.4 µM | 2.8 µM | Active |  |  |  |  |  | 
